Measured values taken from patent publication US5466718A, “Tyrosinase inhibitors” (Takasago Institute for Interdisciplinary, priority 1993, dated 1995).
In brackets after ≈: the same amount, converted by molar mass. Counter-ions that a name gives are not always drawn.

Experiments:
tyrosinase = experiment: Tyrosinase inhibition (long exposure), melanin formation from L-tyrosine; assay type: biochemical; conditions: test solution 200 μg/ml, pH 6.8, 37° C., L-tyrosine substrate
Procedure: Tyrosinase inhibitory effects of the active compounds of this invention on long exposure were determined using […]. The method of Chen et al. (J. Agric. Food Chem., 39, 8, 1991) was adapted and scaled down for spectrophotometric analysis on a Bio Rad Model 3550 Microplate Reader (Bio-Rad, Richmond, Calif.), which uses 96-well plates. 20 μl of tyrosinase solution containing 0.02 mg/ml of tyrosinase (Sigma Chemical Company) and 76 μl of a test solution of citronellol, geraniol, or farnesol, adjusted to 200 μg/ml with a phosphate buffer solution (pH 6.8) were added to each well. After incubation at 37° C. for 8 minutes, 1 mM L-tyrosine (Sigma Chemical Company) was added as a substrate. Absorbance at 490 nm was measured every 60 seconds for up to 120 minutes to determine how much the amount of melanin produced from tyrosine substrate decreased as a result of the tyrosinase inhibition.

[1] = test system: Mouse melanoma cell line (ATCC CRL 6322); experiment: Melanin formation inhibition in melanoma cells; assay type: cell-based; conditions: for inhibition at 250 µM: 0.25 mM; for inhibition at 500 µM: 0.5 mM
Procedure: Inhibitory effects on the melanin formation in melanoma cells were tested by the following procedure. Results obtained are shown in Table 5, together with the results obtained with arbutin as a control.
Mouse melanoma cell line (ATCC CRL 6322) was maintained in MEM medium (GIBCO BR, Gaitherburg, Md.) supplemented with 10% heat-inactivated fetal bovine serum described by Maeda (J. Cosmet. Chem., 42, 361 (1991)). More specifically, the cells were cultured on 6-well tissue culture plates (Falcon 3046) with various concentrations of each test compound listed in Table 5 below at 37° C., and at a humidity of 98%, in 5% carbon dioxide atmosphere for 4 days. Cell viability in all tests was determined by Trypan Blue exclusion. The culture media were aspirated, and 1.0 ml of an aqueous 0.25% trypsin solution and an aqueous 0.2% ethylenediaminetetraacetic acid (EDTA) solution were added to each well. Detached cells were placed in an Eppendorf tube, and centrifuged at 1,000 rpm for 5 minutes. The cell pellets thus obtained were mixed with 5% trichloroacetic acid, agitated well, and centrifuged 10,000 rpm to deposit melanin. The melanin pellets were mixed with 1N NaOH for dissolution, and the absorbance at 475 nm was measured, from which melanin formation inhibition (%) was calculated.

mushroom tyrosinase = experiment: Tyrosinase inhibition (mushroom tyrosinase, L-DOPA, dopachrome absorbance at 475 nm); assay type: biochemical; conditions: pH 6.8, 22° C., L-DOPA substrate; concentration with 40 to 60% inhibition in a minimum of two trials taken as IC50
Procedure: Inhibition tests were carried out using aqueous solvents. Saturated stock solutions were prepared by at least 48 hours before the tests were run, which were diluted appropriately upon use in order to increase the solubilities in the aqueous solvents of the lipophilic test compounds.
Tests were carried out according to conventional procedure as follows. That is, 0.01 to 0.02 ml of a mushroom tyrosinase solution (1,375 U/ml, Sigma Chemical Co.), 0.98 to 0.99 ml of a 0.07M phosphate buffer solution (pH 6.8) and 1 ml of a test solution with or without a test compound listed in Table 2 were mixed, and the resulting mixture was incubated at 22° C. for 8 minutes. Then, 1 ml of a 0.03% aqueous solution of I-DOPA (L-3,4-dihydroxyphenylalanine having a purity of 99%, Sigma Chemical Co.) was added thereto. After incubation at 22° C. for 2 minutes, the amount of dopachrome in the reaction mixture was measured as absorbance (optical density) at 475 nm. The change in absorbance with or without different test samples was monitored every 30 seconds for the following 2.5 minutes using a Beckman DU-64 spectrophotometer (Beckman, Palo Alto, Calif.).
Each test compound was repeatedly tested until the 50% inhibitory concentration (IC50) (μg/ml) was determined.
The percent inhibition was calculated according to the following equation: [formula] where A=Absorbance
^A final=Final absorbance
^A initial=Initial absorbance

[2] = Mus musculus, 96 h, 4 days, 37° C.

**Q.** How did the “Inhibition Ratio (%) on Melanin Formation” value (“Inhibition Ratio (%)” below) (tyrosinase; 0 minute) turn out when `CC(C)=CCCC(C)CCO` (centres unmarked) [Citronellol] was run?
**A.** Its value is 0%.

**Q.** And the “Inhibition Ratio (%)” value (tyrosinase; 30 minute)?
**A.** Its value is 39.6%.

**Q.** What about the “Inhibition Ratio (%)” value (tyrosinase; 120 minute) of the same compound?
**A.** Its value is 43.8%.

**Q.** And the inhibition at 250 µM [1, 2]?
**A.** The inhibition at 250 µM was 25%.

**Q.** And the inhibition at 500 µM [1, 2]?
**A.** The inhibition at 500 µM was 25%.

**Q.** And the IC50 (mushroom tyrosinase)?
**A.** The IC50 was 6.3 µg/mL (≈ 40.3 µM).

**Q.** With `CC(C)=CCCC(C)=CCCC(C)=CCO` [Farnesol] as the compound, how does the “Inhibition Ratio (%)” value (tyrosinase; 0 minute) read?
**A.** The value was 0%.

**Q.** And the “Inhibition Ratio (%)” value (tyrosinase; 30 minute)?
**A.** Its value is 23.6%.

**Q.** What about the “Inhibition Ratio (%)” value (tyrosinase; 120 minute) of the same compound?
**A.** The value was 31.9%.

**Q.** What about the IC50 (mushroom tyrosinase) of the same compound?
**A.** The IC50 was 12.5 µg/mL (≈ 56.2 µM).

**Q.** Which IC50 (mushroom tyrosinase) does the source give for `C=CC(C)(O)CCC=C(C)CCC=C(C)C` (centres unmarked) [Nerolidol] here?
**A.** Its IC50 is 12.5 µg/mL (≈ 56.2 µM).

**Q.** `CC(C)=CCC/C(C)=C/COC(=O)C(C)C` [Geranyl isobutyrate] was tested. Which IC50 (mushroom tyrosinase) did it give?
**A.** The IC50 was 12.5 µg/mL (≈ 55.7 µM).

**Q.** With `CC(C)=CCCC(C)CC=O` (centres unmarked) [Citronellal] as the compound, how does the IC50 (mushroom tyrosinase) read?
**A.** Its IC50 is 9.4 µg/mL (≈ 60.9 µM).

**Q.** Which IC50 (mushroom tyrosinase) does the source give for `CCCCCCCCCCO` [Decanol] here?
**A.** The IC50 was 12.5 µg/mL (≈ 79 µM).

**Q.** How did the IC50 (mushroom tyrosinase) turn out when `CC(C)=CCCC(C)CCOC=O` (centres unmarked) [Citronellyl formate] was run?
**A.** The IC50 was 6.3 µg/mL.

**Q.** Which inhibition at 250 µM [1, 2] does the source give for `CC(C)=CCCC(C)CCOC(=O)C(C)C` (centres unmarked) [Citronellyl isobutyrate] here?
**A.** The inhibition at 250 µM was 31%.

**Q.** And the inhibition at 500 µM [1, 2]?
**A.** The inhibition at 500 µM was 56%.

**Q.** What about the IC50 (mushroom tyrosinase) of the same compound?
**A.** The IC50 was 6.3 µg/mL (≈ 27.8 µM).

**Q.** How did the IC50 (mushroom tyrosinase) turn out when `CC(C)=CCCC(C)CC#N` (centres unmarked) [Citronellyinitrile, citronellylnitrile] was run?
**A.** The IC50 was 9.4 µg/mL (≈ 62.1 µM).

**Q.** Which IC50 (mushroom tyrosinase) does the source give for `CCCCCCCCO` [Octanol] here?
**A.** Its IC50 is 12.5 µg/mL (≈ 96 µM).

**Q.** For `CC(C)=CCCC(C)=CCCC(C)=CCOC(=O)C(C)C` [Farnesyl isobutyrate], which IC50 (mushroom tyrosinase) is on record?
**A.** Its IC50 is 12.5 µg/mL (≈ 42.7 µM).

**Q.** For `CC(C)=CCCC(C)=CCCC(C)=CCOC(=O)c1ccccc1` [Farnesyl benzoate], which IC50 (mushroom tyrosinase) is on record?
**A.** The IC50 was 25.0 µg/mL (≈ 76.6 µM).

**Q.** How did the IC50 (mushroom tyrosinase) turn out when `CC(C)=CCCC(C)=CCCC(C)=CCOC(=O)Cc1ccccc1` [Farnesyl phenylacetate] was run?
**A.** Its IC50 is 12.5 µg/mL (≈ 36.7 µM).

**Q.** `OC[C@H]1O[C@@H](Oc2ccc(O)cc2)[C@H](O)[C@@H](O)[C@@H]1O` [Arbutin, reference compound] was tested. Which inhibition at 125 µM ([1]; Mus musculus, 96 h, 0.125 mM, 4 days, 37° C.) did it give?
**A.** Its inhibition at 125 µM is 58%.

**Q.** And the inhibition at 250 µM [1, 2]?
**A.** The inhibition at 250 µM was 53%.

**Q.** What about the “melanin formation inhibition in melanoma cells” value ([1]; summary of Table 5, aqueous system) of the same compound?
**A.** Its value is “exhibited higher inhibitory effects than the active compounds of the present invention”.

**Q.** And the IC50 (mushroom tyrosinase)?
**A.** The IC50 was 63 µg/mL (≈ 231 µM).

**Q.** Which IC50 (mushroom tyrosinase) does the source give for `CC(=O)OCCC(C)CCC=C(C)C` (centres unmarked) [Citronellyl acetate] here?
**A.** Its IC50 is 18.8 µg/mL.

**Q.** How did the IC50 (mushroom tyrosinase) turn out when `CC(C)=CCCC(C)CCOC(=O)c1ccccc1` (centres unmarked) [Citronellyl benzoate] was run?
**A.** The IC50 was 6.3 µg/mL (≈ 24.2 µM).

**Q.** For `CCC(=O)OCCC(C)CCC=C(C)C` (centres unmarked) [Citronellyl propionate], which IC50 (mushroom tyrosinase) is on record?
**A.** Its IC50 is 12.5 µg/mL (≈ 58.9 µM).

**Q.** With `CCCC(=O)OCCC(C)CCC=C(C)C` (centres unmarked) [Citronellyl butyrate] as the compound, how does the IC50 (mushroom tyrosinase) read?
**A.** The IC50 was 37.5 µg/mL (≈ 166 µM).

**Q.** With `C=CC(C)CCCC(C)(C)O` (centres unmarked) [Dihydromyrcenol] as the compound, how does the IC50 (mushroom tyrosinase) read?
**A.** The IC50 was 12.5 µg/mL (≈ 80 µM).

**Q.** `CC(C)=CCC/C(C)=C/CO` [Geraniol] was tested. Which “Inhibition Ratio (%)” value (tyrosinase; 0 minute) did it give?
**A.** The value was 0%.

**Q.** What about the “Inhibition Ratio (%)” value (tyrosinase; 30 minute) of the same compound?
**A.** The value was 37.3%.

**Q.** What about the “Inhibition Ratio (%)” value (tyrosinase; 120 minute) of the same compound?
**A.** Its value is 48.5%.

**Q.** And the inhibition at 250 µM [1, 2]?
**A.** The inhibition at 250 µM was 30%.

**Q.** What about the inhibition at 500 µM [1, 2] of the same compound?
**A.** The inhibition at 500 µM was 18%.

**Q.** And the IC50 (mushroom tyrosinase)?
**A.** Its IC50 is 6.3 µg/mL (≈ 40.8 µM).
